Data taken from US8580847B2, “Antrocin containing pharmaceutical compositions for inhibiting cancer cells” (Chaoyang University of Technology, priority 2010, dated 2013).

What was measured:
[1] = test system: human cancer cell lines (HT-29, HCT116, Huh7, A549, MCF7, MDA-MB-231); test: SRB anti-proliferative assay on human cancer cell lines; assay type: cell-based
Description: Antrocin was dissolved in DMSO at a concentration of 10 mM and was stored in a dark-colored bottle at −20° C. as a stock solution. The stock was diluted to the required concentration with serum-free medium immediately before use. Before treatment with antrocin, the medium was removed when cells were about 70% confluent, the cells were starved overnight in serum-free medium and then exposed to antrocin at different concentrations (0-10 μM) and for different periods of time (0-48 h).
(§1) Briefly, three breast cancer cells (MDA-MB-231, MCF-7 & MCF-10A) were seeded into 96-well plates in growth medium at 3000 cells/well for 24 h. Then, the cells were treated with antrocin at various concentrations (0, 0.5, 1, 3, 5 and 10 μM) for various periods of time. After the exposure period, the cells were fixed with TCA for 1 hour and stained with 100 μL of 0.4% (w/v) SRB for 10 minutes at room temperature. The bound dye was solubilized in 20 mM Tris base (100 μL/well) for 5 minutes on a shaker. Optical densities were read on a microplate reader (Molecular Devices, Sunnyvale, Calif.) at 562 nm.
(§2) The anti-proliferative effects of antrocin were assessed on human cancer cell lines, using the SRB assay, with normal foreskins fibroblast HS68 cells and non-tumorgenic breast epithelial MCF-10A cells as controls.

[2] = test system: non-tumorgenic breast epithelial MCF-10A cells; test: SRB assay, non-tumorgenic MCF-10A cells; assay type: cell-based, human; settings: SRB assay (FIG. 2)
Description: (§3) MCF-7 and MDA-MB-231 breast tumor cell lines came from a pleural effusion of patients with invasive breast carcinoma. The MCF-10A cell line is a non-tumorigenic epithelial cell line. All three human cell lines were provided by the American Type Culture Collection (ATCC). In the present invention, MDA-MB-231 cells were grown in Dulbecco's Modified Eagle's Medium (DMEM) media with 10% FBS, 2 mM glutamine, 100 μg/ml streptomycin in a 37° C. humidified atmosphere with CO2. MCF-7 were cultured in DMEM media supplemented with 2 mM L-glutamine, 100 μg/ml streptomycin, 10% fetal bovine serum, 0.04 UI/ml insulin in a humidified atmosphere at 37° C. containing 5% CO2. MCF10A cells were maintained in DMEM containing 5% horse serum, 2 mM L-glutamine, 20 μg/ml gentamycin, 20 ng/ml epidermal growth factor, 100 ng/ml cholera toxin, 0.25 UI/ml insulin and 0.5 μg/ml hydrocortisone held at 37° C. with 5% CO2.
(§4) Antrocin was dissolved in DMSO at a concentration of 10 mM and was stored in a dark-colored bottle at −20° C. as a stock solution. The stock was diluted to the required concentration with serum-free medium immediately before use. […]
(§5) Briefly, three breast cancer cells (MDA-MB-231, MCF-7 & MCF-10A) were seeded into 96-well plates in growth medium at 3000 cells/well for 24 h. […] Optical densities were read on a microplate reader (Molecular Devices, Sunnyvale, Calif.) at 562 nm.

[3] = test system: MDA-MB-231 human breast cancer cells; test: SRB cytotoxicity assay, MDA-MB-231; assay type: cell-based
Description: as §3, §4, §5

[4] = test system: normal foreskins fibroblast HS68 cells; test: SRB assay, normal HS68 cells; assay type: cell-based, human; settings: SRB assay (FIG. 2)
Description: as §1, §2

[5] = test system: MDA-MB-231 cells; test: Cell morphology studies by phase microscopy; assay type: cell-based, human; settings: 48 hr incubation, various concentration, phase-contrast microscope (FIG. 4)
Description: After treatment with different dose of antrocin for 48 hr, the MDA-MB-231 cells, cultured on glass coverslips, were washed three times with PBS, fixed with 3% paraformaldehyde for 10 min at room temperature, and then washed in PBS again, and the morphological changes were observed. Cell morphology was then observed by phase microscopy.

[6] = test system: MDA-MB-231 cells; test: Cell cycle analysis by PI flow cytometry; assay type: cell-based, human; settings: 48 hr, MDA-MB-231 (FIG. 5)
Description: A total of 2×10^5 MDA-MB-231 cells/dish were seeded onto each 60 mm dish and incubated for 24 h. Various concentration of antrocin were added to the culture media, and the cells were incubated for an additional 48 hr. Cells were harvested and fixed in cold 75% ethanol at 4° C. for 16 h and incubated with 20 μg/ml RNase A at 37° C. for 30 min and then with 40 μg/ml propidium iodide (PI) at 4° C. for 30 min. Samples were immediately analyzed with a FACSCalibur flow cytometer (Becton, Dickinson and Co., San Jose, Calif). Approximately 10,000 counts were made for each sample. The percentage distributions of apoptotic cells were calculated by CellQuest™ software (Becton, Dickinson and Co., San Jose, Calif.).

[7] = test system: MCF-7 human breast carcinoma cells; test: SRB cytotoxicity assay, MCF-7; assay type: cell-based
Description: as §3, §4, §5

## C=C1CCC2C(C)(C)CCCC23C(=O)OCC13 (centres unmarked) [antrocin]
[1]; HT-29, HCT116, Huh7, A549, MCF7, MDA-MB-231
  inhibition activity to cancer cell lines: high inhibition activity
[1]; SRB assay, all cancer cells tested (FIG. 1)
  growth of cancer cells: inhibited in a concentration-dependent manner
[2]
  antiproliferative effect / growth inhibition on MCF-10A cells: no antiproliferative effect
[2]; listed as Antrocin
  antiproliferative effect / growth inhibition on MCF-10A cells: no significant inhibition
[3]; MDA-MB-231, 48 hr treatment, same dosage (FIG. 3)
  cell growth inhibition compared with doxorubicin or cisplatin: more potent than doxorubicin or cisplatin
[3]; antrocin concentration of 0.5 μM
  MDA-MB-231 cell growth: significantly inhibited
[4]
  antiproliferative effect on HS68 cells: no antiproliferative effect
[5]
  morphological alterations: cell shrinkage, membrane blebbing, apoptotic body formation
[6]; 10 μM antrocin
  progression to apoptosis (apoptotic cells): 58.3%
[6]; different dose
  cell cycle distribution: accumulated progressively in subG1 phase
[7]
  cell growth inhibition, MDA-MB-231 compared with MCF-7: more effective in MDA-MB-231 cells in comparison with MCF-7
